Patent EP2371816A1, “Aminocyclohexenone, their preparation and use as medicament against oxidative stress” (ABIOGEN PHARMA S.p.A., priority 2010, dated 2011)

Experiments:
[1] = Acute toxicity study, intraperitoneal single dose (OECD guideline no. 420); type: in vivo; conditions: result in words, with reference to Example 13
Procedure: This study was carried out with the purpose of investigating the toxicity of a single dose of the listed compounds administered to ICR (CD-1) female mice. According to the current OECD guideline no.
The mice used were all female and were treated by intraperitoneal injection administration. The animals were observed individually and regularly for the first 4 hours and within 24 hours after administration, and then twice a day for the whole observation period. As soon as the animals were stabilized, observations at the weekend were undertaken once only during the day.
The evaluated parameters included the survival, body weight development, variations in skin and fur, changes in ocular, conjunctival and buccal mucous membranes, changes in activities of the respiratory, circulatory, autonomous and central nervous systems, changes in somatomotor activity and in behaviour.
Any appearance of tremors, convulsions, salivation, diarrhea, lethargy, drowsiness and coma were attentively and regularly monitored. At the end of the observation period, a post-mortem was carried out on all the animals.

[2] = system: BAEC cells (bovine aortic endothelial); assay: In vitro inhibition of CHP-induced oxidative stress (DCF fluorescence) in BAEC cells; type: cell-based; conditions: 500 µM CHP, compound 4, 20, 100 and 500 µM, 30 minutes at 37 °C, range given for both cell lines together
Procedure: (§1) The method used was essentially the one reported by Rüweler M. et al. ("Inhibition of peroxide-induced radical generation by plant polyphenols in C6 astroglioma cells" (2008) Toxicol in vitro 22, 1377-81), with a few minor modifications.
(§2) The cells were seeded in phenol-red free DMEM (Sigma Aldrich) into 96-well plates with 5% FBS and 20 mM HEPES at a density of 40,000 cells/well. After 48 hours, the medium was substituted by HBSS (Hanks' Balanced Salt Solution, Sigma) containing 10 µM of dihydro-2',7'-dichlorofluorescein diacetate (H2DCF-DA, Sigma Aldrich) and incubated in darkness for 30 minutes at 37 °C, in order to load the cells with fluorescent dye. H2DCF-DA was hydrolyzed enzymatically by the intracellular esterases to form non-fluorescent H2DCF, which was then rapidly oxidized to form 2',7'-dichlorofluorescein (DCF) being highly fluorescent in the presence of reactive species (RS). The intensity of DCF fluorescence is directly proportional to the amount of RS formed.
(§3) After carrying out two washes, the cells were exposed to 500 µM of CHP and various concentrations (4, 20, 100 and 500 µM) of the compounds of the invention for 30 minutes at 37 °C. Fluorescence was then measured, after cell washing, by a microplate reader at an excitation wavelength of 485 nm and an emission wavelength of 535 nm.
(§4) Six wells per plate per concentration of test composition (compound + CHP) and per control (HBSS without CHP) were measured and 12 wells were used as reference for CHP-induced stress. In addition, each 96-well plate contained 6 wells that received the highest concentration of the tested compounds without CHP, to investigate whether the compounds of the invention alone were able to induce cellular radical formation.
(§5) When using this assay, it should be borne in mind that DCF fluorescence is a generalized indicator of oxidative stress rather than of any particular reactive species, i.e. it is not a direct assay for H2O2 or other reactive species (Halliwell B, Whiteman M. (2004) "Measuring reactive species and oxidative damage in vivo and in cell culture: how should you do it and what do the results mean?" Br. J. Pharmacol. 142 231-255). Therefore, when an increase in DCF fluorescence induced by exposure of cells to CHP was measured, as was undertaken in these assays, it was not possible to deduce which reactive species was responsible. Inhibition of CHP-induced fluorescence was evaluated by means of different concentrations of the compounds of the invention and comparative compounds such as Trolox and edaravone.

C6 cells (rat glioma) = assay: In vitro inhibition of CHP-induced oxidative stress (DCF fluorescence) in C6 cells; type: cell-based; conditions: 500 µM CHP, compound 4, 20, 100 and 500 µM, 30 minutes at 37 °C, range given for both cell lines together
Procedure: as §1, §2, §3, §4, §5

[3] = TEAC method (Trolox Equivalent Antioxidant Capacity Assay); conditions: ratio of gradient to gradient of reference (trolox); 37 °C, 650 nm, pH 4.5
Text: This assay is used to measure the total antioxidant activity of pure substances, biological fluids and plant compounds and is based on the reaction of antioxidants with the cation radical ABTS^˙+ (2,2'-azinobis(3-ethylbenzothiazolin-6-sulphonate)). This cation radical is metastable and has to be generated just before the experiment by reacting ABTS with hydrogen peroxide in the presence of HRP.
This radical can be reduced, with consequent loss of absorbance, by an antioxidant whose scavenging capacity can be measured spectrophotometrically at 650 nm. The test is carried out at 37 °C and the results are obtained from a comparison with Trolox (a synthetic antioxidant and hydrophilic analogue of vitamin E).
The ABTS solution S1 was prepared as follows: • 20 mg of ABTS were added to 50 mM of citric acid buffer (40 ml) at pH=4.5 and to the resulting solution there was added an aqueous solution of HRP (4.4 mg, 400 µl) and an aqueous solution of H2O2 (10 µl of a 30% solution diluted with 16.3 ml of water).
For each of the compounds (2), (6) and (7), as synthesized above, there was prepared a 600 µM solution in water, methanol or DMSO according to its solubility, as well as a Trolox solution as reference.
Each solution was diluted to produce 6 solutions each at a concentration between 25 µM and 300 µM. From each of the diluted and divided solutions, there were withdrawn 20 µl to which 200 µl of solution S1 were then added.
The decrease in absorbance of each solution thus obtained was monitored at 650 nm until a stable value was reached (about 90 minutes).
For each set of 6 solutions and for the reference trolox solution, the absorption was given in graph form as a function of the amount of compound (nmol) in the solution. The gradient of the straight line obtained by linear interpolation was determined according to the least squares method. The TEAC value of each compound of the invention is given in the table below and is expressed as the ratio between the gradient of the resulting straight line and the gradient of the reference (trolox) straight line.

SMILES | toxicity evaluation in vivo (tolerability) [1] | Inhibition of CHP-induced fluorescence [2] | Inhibition of CHP-induced fluorescence (C6 cells (rat glioma)) | TEAC [3]
CC1(C)CC(=O)C=C(NCCN2CCCCC2)C1 [(1), 5,5-dimethyl-3-(2-(piperidin-1-yl)ethylamino)cyclohex-2-enone] | well tolerated | effective | effective | –
O=C1C=C(NCCN2CCCCC2)CC(c2ccccc2)C1 (stereo not shown) [(3), 5-phenyl-3-(2-(piperidin-1-yl)ethylamino)cyclohex-2-enone] | – | effective | effective | –
CC1(C)CC(=O)C=C(NN2CCCCC2)C1 [(6), 5,5-dimethyl-3-(piperidin-1-ylamino)cyclohex-2-enone] | well tolerated | – | – | 1.2
